Data published in patent US12012413B2, “Methods of treating painful diabetic peripheral neuropathy” (Tenacia Biotechnology (Hong Kong) Co., Limited, priority 2019, dated 2024).
≈ marks a conversion by molar mass, not a printed value. Read-outs that look alike come from different tables or passages of the source. Values belong to the molecule of their own block, whether it stands above or below them.

Columns and labels:
[1] = Solid form conversion / physical stability (XRPD); assay type: physicochemical; conditions: for form conversion in suspension: isopropanol, ethyl acetate, or isopropyl acetate
Procedure: X-ray powder diffraction (XRPD) analysis was carried out on a Stoe Stadi P with Mythen1K detector; Cu-Kα1 radiation; 40 kV and 40 mA tube power; curved Ge monochromator; 0.02° 2θ step size, 12 s step time, 1.5-50.5° 2θ scanning range; detector mode: step scan; 1° 2θ detector step. The sample (about 20 mg) was placed between two acetate foils and clamped in a Stoe transmission sample holder. The sample holder was rotated during the measurement.
X-ray powder diffraction (XRPD) analysis was also carried out on a on a Bruker D8 Advance; Cu-Kα radiation; standard measurement conditions: Bragg-Brentano reflection geometry; 40 kV and 40 mA tube power; LynxEye detector; 0.02° 2θ step size, 37 s step time, 2.5-50.5° 2θ scanning range (about 10 min measurement time. The sample was spread on a silicon single crystal substrate without cavity and flattened to fit to the 0.1 mm depth of the sample holder.
Crystalline, anhydrous Form C material of 3-hydroxy-2-(5-isobutyryl-1-oxo-2,5-diazaspiro[3.4]octan-2-yl)butanamide is not stable in comparison to anhydrous Form A or anhydrous Form B under ambient conditions of temperature and humidity. […] In turn, anhydrous Form A and anhydrous Form B each convert to monohydrate Form MH under the conditions described above.

[2] = Solubility of anhydrous crystalline forms in water and isopropyl acetate at room temperature; assay type: physicochemical
[3] = test system: neuropathic pain associated with diabetic peripheral neuropathy; assay: Randomized, double-blind, placebo-controlled multiple-dose study in subjects with neuropathic pain associated with diabetic peripheral neuropathy; assay type: in vivo, human
Procedure: A randomized, double-blind, parallel-group, placebo-controlled, multiple-dose study was conducted to assess the efficacy and safety of NYX-2925 in subjects with neuropathic pain associated with diabetic peripheral neuropathy. The study was to evaluate the efficacy of multiple dose levels of NYX-2925 versus placebo in treating the neuropathic pain associated with diabetic peripheral neuropathy. The study was also to assess the effects of multiple dose levels of NYX-2925 versus placebo on pain characteristics, sleep interference, health status, psychological state, and global improvement, and to assess the safety and tolerability of multiple dose levels of NYX-2925. The study was a 6- to 9-week study, including a 1- to 4-week Screening Period, followed by a 4-week double-blind, randomized, placebo-controlled Treatment Period, and a 1-week Follow-Up Period. Subjects with Type 2 diabetes who had been on stable antidiabetic medication for at least 1 month (or had stable glycemic control with diet and exercise alone) and who had been suffering from painful diabetic peripheral neuropathy in the lower extremities for at least 6 months but not more than 10 years were screened for diabetic peripheral neuropathy using the Michigan Neuropathy Screening Instrument and the Masquerading Disorders Tool. […] Subjects were dispensed acetaminophen to be used as rescue medication, and were instructed to take no more than 2 g/daily (one to two 500-mg caplets every 4 to 6 hours as needed) for DPN pain. Beginning immediately after Visit 1, pain intensity and rescue medication use were recorded in the study-issued handheld device daily at bedtime. Subjects entered their average pain intensity, worst pain intensity, pain on walking, and whether rescue medication was used during the past 24 hours. Pain intensity was recorded using an 11-point NRS, with 0 being no pain and 10 being the worst pain imaginable. Every morning upon awakening, subjects completed the Daily Sleep Interference Scale (DSIS) via their study-issued handheld device. Eligible subjects were randomized to receive either NYX-2925 10 mg daily, NYX-2925 50 mg daily, NYX-2925 200 mg daily, or placebo for 4 weeks in a 1:1:1:1 allocation. Investigators and subjects were masked to the randomization allocation. Subjects were dispensed a 2-week supply of investigational product and instructed to take 2 capsules by mouth once daily. Subjects were also re-dispensed acetaminophen to use as rescue medication for DPN pain; instructions not to exceed 2 g/day were reinforced. The appropriate use of rescue medication was assessed by inventory of the returned caplets, as well as by subject interview. Subjects were instructed to continue entering their average pain intensity, worst pain intensity, pain upon walking, and whether they used rescue medication over the past 24 hours into their study-issued handheld devices every night. Every morning upon awakening, subjects completed the DSIS via their study-issued handheld device. Pain diary compliance was reviewed at each study visit by the study staff, and reporting instructions was reinforced. Quantitative sensory testing was done using the Bedside Sensory Testing Kit. The following scales were completed at the Baseline Visit: Brief Pain Inventory for Diabetic Peripheral Neuropathy (BPI-DPN), the Short-Form McGill Pain Questionnaire version 2 (SF-MPQ-2), the Norfolk Quality of Life Questionnaire-Diabetic Neuropathy (QOL-DN), the HADS, the Insomnia Severity Index, and the S-STS. Subjects returned to the clinic at the end of Week 2 for assessment of compliance with study medication, use of rescue medication, and were dispensed the final 2-week supply of investigational product and rescue medication for DPN pain. Pain diary compliance was reviewed by the study staff, and reporting instructions were reinforced. Adverse events were assessed by asking the subjects a non-leading question. Use of concomitant medications was documented. […]

[4] = 10, 50 or 200 mg by mouth once daily for 4 weeks
[5] = advanced DPN (at least 4 years)
[6] = patients with at least 4 years of DPN duration

SMILES: CC(C)C(=O)N1CCCC12CN(C(C(N)=O)C(C)O)C2=O (centres unmarked) [3-hydroxy-2-(5-isobutyryl-1-oxo-2,5-diazaspiro[3.4]octan-2-yl)butanamide]
- physical stability on storage (XRPD) ([1]; about six weeks in a sealed vial at −20° C.): did not crystallize

SMILES: CC(C)C(=O)N1CCC[C@]12CN([C@H](C(N)=O)[C@@H](C)O)C2=O [NYX-2925, (2S,3R)-3-hydroxy-2-((R)-5-isobutyryl-1-oxo-2,5-diazaspiro[3.4]octan-2-yl)butanamide]
- change in daily sleep interference score from baseline ([3]; 50 mg dose, advanced DPN (at least 4 years), at least at the 2, 3 and 4 week points): Statistical significance
- change in average pain (NRS) from baseline ([3]; 50 mg dose, advanced DPN (at least 4 years), at least at the 3 and 4 week points): Statistical significance
- change from placebo in average daily pain, baseline to week 4, by duration of painful DPN ([3]; 50 mg dose, groups ≥1 to ≥5 yrs): most significant at ≥4 years
- Week 4 change vs. baseline in average daily pain (on 10-point NRS) ([3]; 50 mg once daily, patients with advanced DPN): 1.93 points
- Week 4 change vs. placebo in average daily pain (on 10-point NRS) ([3]; 50 mg once daily, patients with advanced DPN, p=0.004): 1.21 points
- separation from placebo by dose ([3]; 200 mg and 50 mg doses): meaningful separation from placebo
- shape of dose response ([3]; 10, 50 and 200 mg doses): inverted-U-shaped dose response
- overall AE profile [3, 4]: comparable to placebo
- safety and tolerability [3, 4]: safe and well tolerated
- serious adverse events (SAEs) [3, 4]: no SAEs
- change in pain on walking (NRS) score from baseline [3, 5]: improvement
- change in worst pain from baseline [3, 5]: improvement
- most active dose level among the three doses tested (10, 50, 200 mg) ([3]; once daily for 4 weeks): 50 mg
- separation from placebo on the primary endpoint (change in average daily pain) ([3]; patients not on a concomitant analgesic (n=148), 10, 50 or 200 mg by mouth once daily for 4 weeks): numeric, but not statistically significant, separation from placebo
- pain alleviation ([3]; patients with DPN, after four weeks): meaningful pain alleviation
- effects on change in average daily pain vs. placebo ([3]; patients with advanced DPN (DPN for ≥4 years, n=127; post-hoc analysis)): significant effects
- insomnia severity (secondary endpoint) [3, 6]: Improvement
- pain interference (secondary endpoint) [3, 6]: Improvement
- pain severity (secondary endpoint) [3, 6]: Improvement
- patient global impression of change (PGI-C) (secondary endpoint) [3, 6]: Improvement
- quality of life (secondary endpoint) [3, 6]: Improvement
- total pain score (secondary endpoint) [3, 6]: Improvement
- effect of concomitant analgesic use on treatment benefit ([3]; patients with or without a concomitant analgesic): does not appear to affect treatment benefit
- MMRM change in daily sleep interference ([3]; subjects not using analgesic (n=148), 50 mg dose, at the 3 and 4 week points): significance
- separation from placebo on the primary endpoint (change in average daily pain) ([3]; total patient population (n=300), 10, 50 or 200 mg by mouth once daily for 4 weeks): numeric, but not statistically significant, separation from placebo

Further lines, with some results ahead:

- solubility in isopropyl acetate ([2]; after 10 minutes, 1 hour, and 6 hours at room temperature): about 8 mg/mL
- solubility ([2]; isopropyl acetate, 22 °C, organic solvent or mixture, room temperature (about 22° C.), read-out: solubility in isopropyl acetate): ~8 mg/mL (≈ 26.9 mM)
- solubility ([2]; water, 22 °C, water, room temperature (about 22° C.), read-out: solubility in water): 54 to 55 mg/mL (≈ 182 to 185 mM)
- time to convert to the monohydrate Form MH in the solid phase ([1]; ambient temperature, atmosphere of greater than 5% relative humidity): ≤ 3 days
SMILES: CC(C)C(=O)N1CCCC12CN(C(C(N)=O)C(C)O)C2=O (centres unmarked) [Form A, 3-hydroxy-2-(5-isobutyryl-1-oxo-2,5-diazaspiro[3.4]octan-2-yl)butanamide]

- solubility ([2]; isopropyl acetate, organic solvent or mixture, after 10 minutes, 1 hour, and 6 hours at room temperature, read-out: solubility in isopropyl acetate): ~9 mg/mL (≈ 30.3 mM)
- solubility at 10 min ([2]; water, after 10 minutes at room temperature): ~54 mg/mL (≈ 182 mM)
- solubility at 1 h ([2]; water, after 1 hour at room temperature): ~54 mg/mL (≈ 182 mM)
- solubility at 6 h ([2]; water, after 6 hours at room temperature): ~48 mg/mL (≈ 161 mM)
SMILES: CC(C)C(=O)N1CCCC12CN(C(C(N)=O)C(C)O)C2=O (centres unmarked) [Form B, 3-hydroxy-2-(5-isobutyryl-1-oxo-2,5-diazaspiro[3.4]octan-2-yl)butanamide]
- conversion to the monohydrate Form MH in the solid state ([1]; ambient temperature, atmosphere of greater than or equal to 50% relative humidity): readily converts to the monohydrate Form MH

- stability in comparison to anhydrous Form A or anhydrous Form B ([1]; ambient conditions of temperature and humidity): not stable
- form conversion in suspension ([1]; temperatures greater than or equal to 75° C.): converts to anhydrous Form B
- form conversion in suspension ([1]; temperatures less than or equal to 50° C.): converts to anhydrous Form A
SMILES: CC(C)C(=O)N1CCCC12CN(C(C(N)=O)C(C)O)C2=O (centres unmarked) [Form C, 3-hydroxy-2-(5-isobutyryl-1-oxo-2,5-diazaspiro[3.4]octan-2-yl)butanamide]
